Test results from US12453716B2, “Small molecule antagonist to PACAP receptor and uses thereof” (University of Vermont and State Agricultural College, priority 2019, dated 2025).

Tests used:
PAC1 receptor [1] = biological target: T1, PAC1 receptor (Homo sapiens, UniProt P41586); assay: PACAP-stimulated ERK phosphorylation/activation in HEK PAC1-EGFP receptor cell line; assay type: cell-based; conditions: for PAC1 receptor endosomal/ligand-mediated ERK activation: concentration not given
T1 construct: expressed in transfected cells
T1 sequence (P41586 21-468): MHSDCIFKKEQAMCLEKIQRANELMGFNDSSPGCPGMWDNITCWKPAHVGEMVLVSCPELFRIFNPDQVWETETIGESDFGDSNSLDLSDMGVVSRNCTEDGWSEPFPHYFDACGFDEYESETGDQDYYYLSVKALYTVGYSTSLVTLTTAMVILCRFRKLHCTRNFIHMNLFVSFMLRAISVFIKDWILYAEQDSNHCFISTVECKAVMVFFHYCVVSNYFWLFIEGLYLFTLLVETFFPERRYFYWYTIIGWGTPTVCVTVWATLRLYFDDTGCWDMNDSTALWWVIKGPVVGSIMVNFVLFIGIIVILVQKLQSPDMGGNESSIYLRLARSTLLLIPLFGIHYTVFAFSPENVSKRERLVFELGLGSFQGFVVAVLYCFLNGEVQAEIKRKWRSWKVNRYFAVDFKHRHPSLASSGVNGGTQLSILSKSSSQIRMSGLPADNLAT
Description: In FIG. 3, using the stably expressing HEK PAC1-EGFP receptor cell line, compound I-1 blocks 25 nM PACAP-stimulated ERK phosphorylation and activation (p42 and p44 ERK bands) in a dose-dependent manner. […] In similar assays, the other compounds (I-2 to I-26) can block PACAP-stimulated ERK signaling with an apparent IC50 of 25 μM.
In FIG. 5, the compound I-20 acts as a glucagon receptor (GCGR) antagonist by binding to an extra-helical allosteric site on the receptor. […] In FIG. 6, the addition of compound I-20 can increase the efficacy and potency of […] inhibiting PACAP-stimulated ERK activation.
In FIG. 7, all samples were pretreated with 25 μM acyl hydrazide before 25 nM PACAP application. Glucagon antagonist is I-20. Data normalized to total cellular ERK not shown.

PAC1 receptor [2] = biological target: T1, PAC1 receptor; assay: PACAP-stimulated calcium signaling, Fura-2 assay in HEK PAC1-EGFP cell line; assay type: cell-based; conditions: for PAC1 receptor-mediated calcium flux: concentration not given
Description: (§1) Compound I-1 blocks PAC1 receptor internalization and calcium signaling. […] Upon 25 nM PACAP application (15 min), the tagged receptor is internalized into intracellular endosomes for ERK signaling (PACAP, middle panel). However, pretreatment of the culture (15 min) with 10-25 μM I-1 blocked PACAP-stimulated receptor internalization (PACAP+I-1); the PAC1-EGFP receptors remained on the cell surface. In FIG. 2, using the same HEK PAC1-EGFP cell line, PACAP rapidly stimulated calcium signaling in Fura-2 assays. The response was blocked approximately 50% with 2.5 μM compound I-1, and was abolished with 25 μM I-1.
The PAC1-EGFP HEK cell lines were preloaded with Fura-2 for calcium imaging. PACAP alone produced robust calcium signals.

PAC1 receptor [3] = biological target: T1, PAC1 receptor; assay: PACAP-stimulated PAC1-EGFP receptor internalization in stable HEK cell line; assay type: cell-based
Description: as §1

male rats = assay: Open field test after BNST infusion, PACAP-induced anxiety-related behavior; assay type: in vivo, rat; conditions: FIG. 8
From the text: Compound I-1 blocks PACAP-induced anxiety-related behavior. In FIG. 8, male rats were cannulated bilaterally into the BNST. […] PACAP infusions into the BNST produced stress/anxiety-like responses as reflected by decreased center field times (duration in seconds). […] In the right panel, the open field entry data was not affected by changes in animal locomotion. Asterisk, statistically different from other groups. Note: I-1+PACAP returned open field times to untreated control levels.

Compound: Cc1cc(C)c(C)c(Cn2ccc3c(/C=N/NC(=O)c4ccc(O)c(Cl)c4)cccc32)c1C [Compound I-19, (E)-3-chloro-4-hydroxy-N′-((1-(2,3,5,6-tetramethylbenzyl)-1H-indol-4-yl)methylene)benzohydrazide]
- PAC1 receptor endosomal/ligand-mediated ERK activation (PAC1 receptor [1]): without apparent effects
- PAC1 receptor-mediated calcium flux (PAC1 receptor [2]): completely blocking

Compound: O=C(N/N=C/c1cccc2c1ccn2Cc1cccc(C(F)(F)F)c1)c1ccc(O)c(Cl)c1 [Compound I-21, reference compound]
- PAC1 receptor endosomal/ligand-mediated ERK activation (PAC1 receptor [1]): modest effects
- PAC1 receptor-mediated calcium flux (PAC1 receptor [2]): attenuate
- PAC1 receptor internalization (PAC1 receptor [3]; concentration not given): modest effects

Compound: COc1ccc2cc(-c3cc(-c4cc(Cl)cc(Cl)c4)nn3C(C)c3ccc(C(=O)NCCC(=O)O)cc3)ccc2c1 (stereo not drawn) [Compound I-20]
- ERK activation attenuated (PAC1 receptor [1]; 25 μM compound, FIG. 5): approximately 50%
- Antagonism at the PAC1-receptor compared to I-1 (PAC1 receptor [1]; FIG. 5): weak antagonist
- PACAP-stimulated ERK activation, combination (PAC1 receptor [1]; I-20 together with 10 μM I-1, FIG. 6): basal or near-basal levels

Compound: O=C(N/N=C/c1cccc2c1ccn2Cc1cc(F)cc(F)c1)c1ccc(O)c(Cl)c1 [Compound I-1, (E)-3-chloro-N′-((1-(3,5-difluorobenzyl)-1H-indol-4-yl)methylene)-4-hydroxybenzohydrazide]
- PACAP-stimulated ERK activation (PAC1 receptor [1]; 25 μM compound, 25 nM PACAP, FIG. 3): near control levels
- IC50 (PAC1 receptor [1]; normalized to total ERK levels, approximate/apparent, FIG. 4, read-out: IC50 in inhibiting PACAP-stimulated ERK activation): 8 to 10 µM
- PACAP-stimulated calcium signal blocked (PAC1 receptor [2]; 2.5 μM compound): approximately 50%
- PACAP-stimulated calcium signal/flux (PAC1 receptor [2]; 25 μM compound): abolished
- Open field center field time, compound alone compared to control (male rats; 5-10 μM infusion into the BNST, no PACAP): no apparent effects
- PACAP-induced stress/anxiety responses (open field center field time) (male rats; BNST preinjection of compound before PACAP infusion): completely blocked
- PACAP-stimulated receptor internalization (PAC1 receptor [3]; 15 min pretreatment with 10-25 μM compound, 25 nM PACAP, 15 min, FIG. 1): blocked
